pIC50: −log10 of the molar value.
Molecular target: T1, human RORγt (Ligand Binding Domain) (Homo sapiens, UniProt P51449)
T1 construct: purchased Crelux (Planegg, Germany) batch no PC5032-1
T1 sequence (P51449 269-508 limits assumed): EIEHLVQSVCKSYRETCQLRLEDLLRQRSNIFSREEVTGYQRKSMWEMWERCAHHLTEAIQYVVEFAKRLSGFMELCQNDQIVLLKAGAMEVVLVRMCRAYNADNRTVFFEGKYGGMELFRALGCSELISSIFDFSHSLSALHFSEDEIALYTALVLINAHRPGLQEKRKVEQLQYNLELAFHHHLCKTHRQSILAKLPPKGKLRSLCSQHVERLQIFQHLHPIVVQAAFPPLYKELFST
Test: Fluorescence Polarization (FP) Assay
Conditions: Fluorescence Polarization (FP) Assay; values given as upper bounds of activity ranges; read-out: FP activity range
Outline: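 Binding to the ligand pocket followed by fluorescence polarization with a TAMRA-tagged RORγt ligand probe of 910 g/mole. Negative control wells received DMSO only.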

Compound | pIC50
Cc1c(N[C@H](CC(C)(C)C)C(N)=O)ncnc1N1CCCC1c1ccc(C(F)(F)F)cc1 (stereo partly drawn) [Example 14, (2R)-4,4-dimethyl-2-[[5-methyl-6-[2-[4-(trifluoromethyl)phenyl]pyrrolidin-1-yl]pyrimidin-4-yl]amino]pentanamide] | > 5.00
COc1ccc(C[C@@H](Nc2ncnc(N3CCCC3c3ccc(C(F)(F)F)cc3)c2F)C(N)=O)cc1 (stereo partly drawn) [Example 17, (2R)-2-[[5-fluoro-6-[2-[4-(trifluoromethyl)phenyl]pyrrolidin-1-yl]pyrimidin-4-yl]amino]-3-(4-methoxyphenyl)propanamide] | > 6.30
CC(C)(C)C[C@@H](Nc1ncnc(N2CCOCC2c2ccc(C(F)(F)F)cc2)c1F)C(N)=O (stereo partly drawn) [Example 20, (2R)-2-[[5-fluoro-6-[3-[4-(trifluoromethyl)phenyl]morpholin-4-yl]pyrimidin-4-yl]amino]-4,4-dimethyl-pentanamide] | > 5.70
O=C(O)C[C@H]1CC[C@H](CNc2ncnc(N3CCOC[C@@H]3c3ccc(OC(F)(F)F)cc3)c2F)CC1 [Example 243, 2-[4-[[[5-fluoro-6-[(3S)-3-[4-(trifluoromethoxy)phenyl]morpholin-4-yl]pyrimidin-4-yl]amino]methyl]cyclohexyl]acetic acid] | > 6.30
CNC(=O)Cc1ccc(CNc2ncnc(N3CCOC[C@@H]3c3ccc(C(F)(F)F)cc3)c2F)cc1 [Example 244, 2-[4-[[[5-fluoro-6-[(3S)-3-[4-(trifluoromethyl)phenyl]morpholin-4-yl]pyrimidin-4-yl]amino]methyl]phenyl]-N-methyl-acetamide] | > 5.70
NC(=O)C1(CNc2ncnc(N3CCOC[C@@H]3c3ccc(C(F)(F)F)cc3)c2F)CCCC1 [Example 249, 1-[[[5-fluoro-6-[(3S)-3-[4-(trifluoromethyl)phenyl]morpholin-4-yl]pyrimidin-4-yl]amino]methyl] cyclopentanecarboxamide] | > 5.00
CN(C)C(=O)C1(CNc2ncnc(N3CCOC[C@@H]3c3ccc(C(F)(F)F)cc3)c2F)CCCC1 [Example 250, 1-[[[5-fluoro-6-[(3S)-3-[4-(trifluoromethyl)phenyl]morpholin-4-yl]pyrimidin-4-yl]amino]methyl]-N,N-dimethyl-cyclopentanecarboxamide] | > 5.00
CS(=O)(=O)NC1CCCC1CNc1ncnc(N2CCOC[C@@H]2c2ccc(C(F)(F)F)cc2)c1F (stereo partly drawn) [Example 251, N-[2-[[[5-fluoro-6-[(3S)-3-[4-(trifluoromethyl)phenyl]morpholin-4-yl]pyrimidin-4-yl]amino]methyl]cyclopentyl] methanesulfonamide] | > 5.00
NCCNC(=O)C1(CNc2ncnc(N3CCOC[C@@H]3c3ccc(C(F)(F)F)cc3)c2F)CCOCC1 [Example 256, N-(2-aminoethyl)-4-[[[5-fluoro-6-[(3S)-3-[4-(trifluoromethyl)phenyl]morpholin-4-yl]pyrimidin-4-yl]amino]methyl]tetrahydropyran-4-carboxamide] | > 5.00
O=C(O)C1(CNc2ncnc(N3CCOCC3c3ccc(C(F)(F)F)cc3)c2F)CCOCC1 (stereo not drawn) [Example 268, 4-[[[5-fluoro-6-[3-[4-(trifluoromethyl)phenyl]morpholin-4-yl]pyrimidin-4-yl]amino]methyl]tetrahydropyran-4-carboxylic acid] | > 5.00
CS(=O)(=O)c1ccc(CNc2ncnc(N3CCOC[C@@H]3c3ccc(C(F)(F)F)cc3)c2F)cn1 [Example 293, 5-fluoro-N-[(6-methylsulfonyl-3-pyridyl)methyl]-6-[(3S)-3-[4-(trifluoromethyl)phenyl]morpholin-4-yl]pyrimidin-4-amine] | > 6.00
CC(C)(CCS(C)(=O)=O)CNc1ncnc(N2CCOC[C@@H]2c2ccc(C(F)(F)F)cc2)c1F [Example 294, N-(2,2-dimethyl-4-methylsulfonyl-butyl)-5-fluoro-6-[(3S)-3-[4-(trifluoromethyl)phenyl]morpholin-4-yl]pyrimidin-4-amine] | > 5.00
OCC1(CNc2ncnc(N3CCOC[C@@H]3c3ccc(C(F)(F)F)cc3)c2F)CC1 [Example 296, [1-[[[5-fluoro-6-[(3S)-3-[4-(trifluoromethyl)phenyl]morpholin-4-yl]pyrimidin-4-yl]amino]methyl]cyclopropyl] methanol] | > 5.00
CS(=O)(=O)NC1CCN(c2ncnc(N3CCOC[C@@H]3c3ccc(C(F)(F)F)cc3)c2F)CC1 [Example 297, N-[1-[5-fluoro-6-[(3 S)-3-[4-(trifluoromethyl)phenyl]morpholin-4-yl]pyrimidin-4-yl]-4-piperidyl]methanesulfonamide] | > 5.00
CS(=O)(=O)N1CCOC(CNc2ncnc(N3CCOC[C@@H]3c3ccc(C(F)(F)F)cc3)c2F)C1 (stereo partly drawn) [Example 309, 5-fluoro-N-[(4-methylsulfonylmorpholin-2-yl)methyl]-6-[(3S)-3-[4-(trifluoromethyl)phenyl]morpholin-4-yl]pyrimidin-4-amine] | > 5.70
NC(=O)Cc1ccc(CNc2ncnc(N3CCCC3c3nc4ccccc4s3)c2F)cc1 (stereo not drawn) [Example 310, 2-[4-[[[6-[2-(1,3-benzothiazol-2-yl)pyrrolidin-1-yl]-5-fluoro-pyrimidin-4-yl]amino]methyl]phenyl]acetamide] | > 6.30
NC(=O)Cc1ccc(CNc2ncnc(N3CCCC3c3cccc4ccccc34)c2F)cc1 (stereo not drawn) [Example 311, 2-[4-[[[5-fluoro-6-[2-(1-naphthyl)pyrrolidin-1-yl]pyrimidin-4-yl]amino]methyl]phenyl] acetamide] | > 6.30
NC(=O)Cc1ccc(CNc2ncnc(N3CCCC3c3ccc4ccccc4c3)c2F)cc1 (stereo not drawn) [Example 312, 2-[4-[[[5-fluoro-6-[2-(2-naphthyl)pyrrolidin-1-yl]pyrimidin-4-yl]amino]methyl]phenyl] acetamide] | > 6.30
Cc1nc(C2CCCN2c2ncnc(NCc3ccc(CC(N)=O)cc3)c2F)no1 (stereo not drawn) [Example 314, 2-[4-[[[5-fluoro-6-[2-(5-methyl-1,2,4-oxadiazol-3-yl)pyrrolidin-1-yl]pyrimidin-4-yl]amino]methyl]phenyl]acetamide] | > 5.00
Cc1nnc(C2CCCN2c2ncnc(NCc3ccc(CC(N)=O)cc3)c2F)o1 (stereo not drawn) [Example 315, 2-[4-[[[5-fluoro-6-[2-(5-methyl-1,3,4-oxadiazol-2-yl)pyrrolidin-1-yl]pyrimidin-4-yl]amino]methyl]phenyl]acetamide] | > 5.00
Cc1nn(C)cc1C1CCCN1c1ncnc(NCc2ccc(CC(N)=O)cc2)c1F (stereo not drawn) [Example 317, 2-[4-[[[6-[2-(1,3-dimethylpyrazol-4-yl)pyrrolidin-1-yl]-5-fluoro-pyrimidin-4-yl]amino]methyl]phenyl]acetamide] | > 5.00
CC(C)(C)C[C@@H](Nc1ncnc(N2CCC[C@@H]2c2ccc(C(F)(F)F)cc2)c1F)C(=O)O [Example 325, (2R)-2-[[5-fluoro-6-[(2R)-2-[4-(trifluoromethyl)phenyl]pyrrolidin-1-yl]pyrimidin-4-yl]amino]-4,4-dimethyl-pentanoic acid] | > 6.00
CS(=O)(=O)c1ccc(Cn2ccc3c(N4CCOC[C@@H]4c4ccc(OC(F)(F)F)cc4)ncnc32)cn1 [Example 329, (3S)-4-[7-[(6-methylsulfonyl-3-pyridyl)methyl]pyrrolo[2,3-d]pyrimidin-4-yl]-3-[4-(trifluoromethoxy)phenyl] morpholine] | > 5.70
CS(=O)(=O)c1ccc(Cn2ccc3c(N4CCOC[C@@H]4c4ccc(OC(F)(F)F)cc4)ncnc32)nc1 [Example 330, (3S)-4-[7-[(5-methylsulfonyl-2-pyridyl)methyl]pyrrolo[2,3-d]pyrimidin-4-yl]-3-[4-(trifluoromethoxy)phenyl] morpholine] | > 5.70

Molecular target: T2, yeast Gal4-DNA binding domain fused to the ligand binding domain of human RORγ (Homo sapiens, UniProt P51449)
T2 construct: host or cells: HEK293t
T2 sequence (P51449 269-508 limits assumed): T1 sequence (P51449 269-508 limits assumed)
Test: RORγ Reporter Assay (Gal4)
Format: cell-based
Conditions: RORγ Reporter Assay (Gal4) at 1 μM; values given as lower bounds of ranges
Protocol: The activity of the compounds was evaluated using a Fluorescence Polarization (FP) Assay and, in most cases, a Th17 Assay and/or RORγ Reporter assay (also referred to as Gal4 assay). The FP assay is an in vitro assay monitoring binding within the ligand binding pocket. The RORγ and the Th17 assays are both cell-based assays monitoring functional activity of the compound assayed.
Cell-based RORγ functional assays were performed using a commercially available assay product (INDIGO Biosciences, State College, Pa., USA; product # IB04001). The RORγ reporter cells are HEK293t cells transfected with one vector that provides high level constitutive expression of a hybrid protein comprised of the yeast Gal4-DNA binding domain fused to the ligand binding domain of human RORγ, and a second vector comprising the firefly luciferase cDNA functionally linked to the upstream activation sequence (UAS) of yeast Gal4. A suspension of RORγ Reporter Cells was prepared using the protocol and culture medium provided in the kit product, and 100 μl of the Reporter Cell suspension was then dispensed into wells of a white, collagen-treated, 96-well assay plate. Concentrated stocks of test compounds were prepared in DMSO, then further diluted using media provided in the kit to generate ‘2×-concentration’ treatment media. 100 μl of medium for each respective treatment concentration dispensed into triplicate assay wells, thereby combining with the reporter cells. All media formulations contained 10% charcoal stripped Fetal Bovine Serum, but are otherwise proprietary to INDIGO Biosciences. Final treatment concentrations for each test compound were 1,000 nM and 100 nM, each with 0.1% residual DMSO. Separate control treatments were media supplemented with vehicle only (0.1% DMSO) to determine the constitutive level of RORγ activity in the reporter cells, and the reference inverse-agonist ursolic acid (f.c. 6,000 nM to 8.2 nM in 3-fold decrements) to establish a positive control inverse-agonist dose response. Assay plates were placed in a 37° C., 5% CO2, 85% humidity incubator for 24 hour. Treatment media were then discarded, 100 μl of luciferase detection reagent was added to each well, and relative light units (RLUs) were quantified from each assay well using a plate reading luminometer. Values of average RLU+/−standard deviation were computed for all treatment sets, followed by the calculations of fold-reduction: [Average RLUVehicle/Average RLUTest Cmpd]. Percent-reduction of RORγ activity in response to respective test compound treatments was calculated: [100*(1−[Ave RLUTest Cmpd/Ave RLUVehicle)] where the theoretical minimum reduction (0% reduction) derives from Vehicle treatment only, no treatment compound.

Compound | Gal4 activity range @ 1 μM (% inhibition)
Cc1c(N[C@H](CC(C)(C)C)C(N)=O)ncnc1N1CCCC1c1ccc(C(F)(F)F)cc1 (stereo partly drawn) [Example 14, (2R)-4,4-dimethyl-2-[[5-methyl-6-[2-[4-(trifluoromethyl)phenyl]pyrrolidin-1-yl]pyrimidin-4-yl]amino]pentanamide] | >0 % inhibition
COc1ccc(C[C@@H](Nc2ncnc(N3CCCC3c3ccc(C(F)(F)F)cc3)c2F)C(N)=O)cc1 (stereo partly drawn) [Example 17, (2R)-2-[[5-fluoro-6-[2-[4-(trifluoromethyl)phenyl]pyrrolidin-1-yl]pyrimidin-4-yl]amino]-3-(4-methoxyphenyl)propanamide] | >80 % inhibition
CC(C)(C)C[C@@H](Nc1ncnc(N2CCOCC2c2ccc(C(F)(F)F)cc2)c1F)C(N)=O (stereo partly drawn) [Example 20, (2R)-2-[[5-fluoro-6-[3-[4-(trifluoromethyl)phenyl]morpholin-4-yl]pyrimidin-4-yl]amino]-4,4-dimethyl-pentanamide] | >50 % inhibition

Reference: US10689383B2, “Optionally fused heterocyclyl-substituted derivatives of pyrimidine useful for the treatment of inflammatory, metabolic, oncologic and autoimmune diseases” (NUEVOLUTION A/S, priority 2014, dated 2020)
